Experimental data as given in patent US12213482B2, “Fungicide enhancers effective for treating plants infected with fungal pathogens” (Board of Regents, The University of Texas System, priority 2015, dated 2025).

Experiments:
Assay type in all cases: cell-based
plant pathogenic fungi = experiment: Fungal plate assays, apyrase inhibitors tested alone; details: apyrase inhibitor alone, no fungicide
Description: Standard antifungal susceptibility disk tests were performed to determine any potentiating effect of ectophosphatase inhibitors on the growth of pathogenic fungus. The pathogenic fungus wild-type strains were plated on PDA medium with paper-disks containing, fungicides at the center of the plate. […] Plates were incubated at 30° C. for 7-days (C. graminicola and S. sclerotiorum) or 12-days (B. cinerea, F. oxysporum and V. dahliae), depending on the growth rate of the fungi. Plates were photographed, and the zone of fungal growth inhibition was measured by using IMAGE J™ software (NIH, USA). All the tests were performed with 5 replicates. The studies were performed two times. Results were analyzed for significance using Student T-tests.

Botrytis cinerea = experiment: Antifungal susceptibility disk test, fungicide disk plus apyrase inhibitor in plate; details: inhibitor 65 μM, 30° C., 12 days; for inhibitory effect on the growth of B. cinerea compared to myclobutanil alone: combined with myclobutanil (53.6 mM) disk, FIG. 2B; for inhibitory effect on the growth of B. cinerea compared to propiconazole alone: combined with propiconazole (418 mM) disk, FIG. 2C
Description: (§1) 2A. Copper Octanoate, 2B. Propiconazole, and 2C. Myclobutanil against the pathogenic fungi Botrytis cinerea. […] The equivalent volume of dimethylsulphoxide (DMSO) was added as a control. The studies were repeated two times with similar results. Error bars indicate standard deviations (n=5). The significances of the potency of fungicides are indicated: *** (Student's t-test, P<0.001); ** (Student's t-test, P<0.01) or *(Student's t-test, P<0.05). The plant pathogenic fungal strains Botrytis cinerea, Colletotrichum graminicola, Fusarium oxysporum, Sclerotiana sclerotiorum and Verticillium dahliae were obtained from the Institute for Plant Genomics & Biotechnology, Texas A & M University, USA Potato dextrose agar (PDA, Sigma-Aldrich) was routinely used for the growth of different pathogenic fungal strain. Ectophosphatase inhibitors NGXT191 (AI.1), AI.10, NGXT1913 (AI.13), and AI. 15 were used dal this study. The fungicides copper octanoate (C16H30CuO4), myclobutanil (C15H17ClN4) and propiconazole (C15H17Cl2N3O2) were used. The concentrations of these compounds used were copper octanoate (285 mM), myclobutanil (53.6 mM) and propiconazole (418 mM). Standard antifungal susceptibility disk tests were performed to determine any potentiating effect of ectophosphatase inhibitors on the growth of pathogenic fungus. The pathogenic fungus wild-type strains were plated on PDA medium with paper-disks containing, fungicides at the center of the plate. […] Plates were incubated at 30° C. for 7-days (C. graminicola and S. sclerotiorum) or 12-days (B. cinerea, F. oxysporum and V. dahliae), depending on the growth rate of the fungi. Plates were photographed, and the zone of fungal growth inhibition was measured by using IMAGE J™ software (NIH, USA). All the tests were performed with 5 replicates. The studies were performed two times. Results were analyzed for significance using Student T-tests.

Sclerotiana sclerotiorum = experiment: as above; details: inhibitor 65 μM, 30° C., 7 days; for inhibitory effect on the growth of Sclerotiana sclerotiorum compared to copper octanoate alone: combined with copper octanoate (285 mM) disk, FIG. 5A; for inhibitory effect on growth of Sclerotiana sclerotiorum compared to myclobutanil alone: combined with myclobutanil (53.6 mM) disk, FIG. 5B; for inhibitory effect on the growth of Sclerotiana sclerotiorum compared to propiconazole alone: combined with propiconazole (418 mM) disk, FIG. 5C
Description: The equivalent volume of dimethylsulphoxide (DMSO) was added as a control. The studies were repeated two times with similar results. Error bars indicate standard deviations (n=5). The significances of the potency of fungicides are indicated: *** (Student's t-test, P<0.001); **(Student's t-test, P<0.01) or *(Student's t-test, P<0.05). The plant pathogenic fungal strains Botrytis cinerea, Colletotrichum graminicola, Fusarium oxysporum, Sclerotiana sclerotiorum and Verticillium dahliae were obtained from the Institute for Plant Genomics & Biotechnology, Texas A & M University, USA Potato dextrose agar (PDA, Sigma-Aldrich) was routinely used for the growth of different pathogenic fungal strain. Ectophosphatase inhibitors NGXT191 (AI.1), AI.10, NGXT1913 (AI.13), and AI. 15 were used dal this study. The fungicides copper octanoate (C16H30CuO4), myclobutanil (C15H17ClN4) and propiconazole (C15H17Cl2N3O2) were used. The concentrations of these compounds used were copper octanoate (285 mM), myclobutanil (53.6 mM) and propiconazole (418 mM). Standard antifungal susceptibility disk tests were performed to determine any potentiating effect of ectophosphatase inhibitors on the growth of pathogenic fungus. The pathogenic fungus wild-type strains were plated on PDA medium with paper-disks containing, fungicides at the center of the plate. […] Plates were incubated at 30° C. for 7-days (C. graminicola and S. sclerotiorum) or 12-days (B. cinerea, F. oxysporum and V. dahliae), depending on the growth rate of the fungi. Plates were photographed, and the zone of fungal growth inhibition was measured by using IMAGE J™ software (NIH, USA). All the tests were performed with 5 replicates. The studies were performed two times. Results were analyzed for significance using Student T-tests.

[1] = tested on: Fusarium oxysporum f.sp Cubense; experiment: as above; details: inhibitor 65 μM, 30° C., 12 days; for inhibitory effect on the growth of F. oxysporum compared to copper octanoate alone: combined with copper octanoate (285 mM) disk, FIG. 4A
Description: as §1, with “Copper” for “2A. Copper”, “Octanoate, 4B.” for “Octanoate, 2B.”, “and 4C.” for “and 2C.”, “fungi Fusarium oxysporum.” for “fungi Botrytis cinerea.”, “P<0.001); **(Student's” for “P<0.001); ** (Student's”

SMILES	fungicidal activity when tested alone (plant pathogenic fungi)	inhibitory effect on the growth of B. cinerea compared to myclobutanil alone (Botrytis cinerea)	inhibitory effect on the growth of Sclerotiana sclerotiorum compared to copper octanoate alone (Sclerotiana sclerotiorum)	inhibitory effect on growth of Sclerotiana sclerotiorum compared to myclobutanil alone (Sclerotiana sclerotiorum)	inhibitory effect on the growth of Sclerotiana sclerotiorum compared to propiconazole alone (Sclerotiana sclerotiorum)	inhibitory effect on the growth of F. oxysporum compared to copper octanoate alone [1]	inhibitory effect on the growth of B. cinerea compared to propiconazole alone (Botrytis cinerea)	inhibitory effect on the growth of F. oxysporum compared to myclobutanil alone ([1]; combined with myclobutanil (53.6 mM) disk, FIG. 4B)	inhibitory effect on the growth of F. oxysporum compared to propiconazole alone ([1]; combined with propiconazole (418 mM) disk, FIG. 4C)
O=C(Nc1cccc([N+](=O)[O-])c1)c1cccc(S(=O)(=O)Nc2ccc(Br)cc2)c1 [AI.13, 3-(N-(4-bromophenyl)sulfamoyl)-N-(3-nitrophenyl)benzamide]	no fungicidal activity was detected	significantly greater inhibitory effect	significantly greater inhibitory effect	significantly greater inhibitory effect	significantly greater inhibitory effect	significantly greater inhibitory effect			
C/C(=N\NC(=O)c1cccc(C)c1)c1ccc2ccccc2c1 [AI.15, (E)-3-methyl-N′-(1-(naphthalen-2-yl)ethylidene)benzohydrazide]	no fungicidal activity was detected	significantly greater inhibitory effect	significantly greater inhibitory effect	significantly greater inhibitory effect	significantly greater inhibitory effect		greater inhibitory effect		
Cc1cccc(NS(=O)(=O)c2ccc(-c3ccccc3)cc2)c1 [AI.1, N-(m-tolyl)-[1,1′-biphenyl]-4-sulfonamide]	no fungicidal activity was detected	significantly greater inhibitory effect	significantly greater inhibitory effect	significantly greater inhibitory effect	significantly greater inhibitory effect	significantly greater inhibitory effect	greater inhibitory effect		
CCCCCCCSC(=O)c1cc2ccccc2oc1=O [AI.10, S-heptyl 2-oxo-2H-chromene-3-carbothioate]	no fungicidal activity was detected		significantly greater inhibitory effect	significantly greater inhibitory effect	significantly greater inhibitory effect		greater inhibitory effect	significantly greater inhibitory effect	significantly greater inhibitory effect
